From PubChem BioAssay (NCI)
Where “and” joins values, the source holds several entries; their conditions need not be identical. Equal values may be shown once.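 These data come from cells grown in 96-well plates and exposed to compound for 48 hours at five concentrations. GI50: concentration for 50% inhibition of growth. At the TGI there is no net growth.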

Experiments:
Assay in all cases: growth of human tumour cells (NCI), 48 h
[1] = system: CAKI-1 renal
[2] = system: U251 CNS
[3] = system: OVCAR-8 ovarian
[4] = system: SF-268 CNS
[5] = system: SF-539 CNS
[6] = system: OVCAR-4 ovarian
[7] = system: HCT-116 colon
[8] = system: OVCAR-3 ovarian
[9] = system: UACC-257 melanoma
[10] = system: NCI-H522 lung

SMILES | TGI [1] | TGI [2] | TGI [3] | TGI [4] | TGI [5] | TGI [6] | TGI [7] | TGI [8] | TGI [9] | TGI [10] | GI50 [1] | GI50 [5] | GI50 [6] | GI50 [7] | GI50 [9] | GI50 [2] | GI50 [3] | GI50 [4] | GI50 [8] | GI50 [10]
Cc1ccc(/C=C2\CCCC\C2=N\O)cc1 | > 100 µM | > 100 µM | > 100 µM | > 100 µM | > 100 µM | > 100 µM | > 100 µM | > 100 µM |  |  |  |  |  |  |  |  |  |  |  | 
CCOC(=O)NC(=O)c1cn(CCN2CCN(C(=O)NCCCCCCNC(=O)N3CCN(CCn4cc(C(=O)NC(=O)OCC)c(=O)n(CCN(CC)CC)c4=O)CC3)CC2)c(=O)n(CCC(CC)CC)c1=O |  | > 100 µM | > 100 µM | > 100 µM | > 100 µM | > 100 µM | > 100 µM | > 100 µM | > 100 µM | > 100 µM |  |  |  |  |  |  |  |  |  | 
C=CCN=C1NC(=O)C(CC(=O)Nc2ccc(C)cc2)S1 (stereo unspecified) | > 100 µM | > 100 µM | > 100 µM | > 100 µM | > 100 µM | > 100 µM |  | > 100 µM |  | > 100 µM |  |  |  |  |  |  |  |  |  | 
CC12CC3CC(C1)CC(N=[N+]=[N-])(C3)C2 | > 100 µM | > 100 µM | > 100 µM |  | > 100 µM | > 100 µM | > 100 µM | > 100 µM | > 100 µM | > 100 µM |  |  |  |  |  |  |  |  |  | 
CC(=O)c1c[nH]cc1CO | > 10 µM | > 10 µM | > 10 µM | > 10 µM | > 10 µM |  | > 10 µM | > 10 µM |  |  |  |  |  |  |  |  |  |  |  | 
NC(CCSC(F)F)C(=O)O (stereo unspecified) | > 100 µM | > 100 µM | > 100 µM | > 100 µM | > 100 µM | > 100 µM | > 100 µM | > 100 µM |  | > 100 µM |  |  |  |  |  |  |  |  |  | 
CCOC1C=CCCO1 (stereo unspecified) | > 100 µM |  | > 100 µM | > 100 µM | > 100 µM | > 100 µM | > 100 µM | > 100 µM | > 100 µM | > 100 µM |  |  |  |  |  |  |  |  |  | 
COc1cc([N+](=O)[O-])c(OC)cc1-c1nc2sc(Cl)cn2c1/C=N/NC(=N)N/N=C/c1c(-c2cc(OC)c([N+](=O)[O-])cc2OC)nc2sc(Cl)cn12 | 23.8 µM |  |  |  | 1.8 µM | 5.71 µM | 3.15 µM |  |  |  | 4.33 µM | 0.387 µM | 2.42 µM | 1.76 µM |  |  |  |  |  | 
N#CN1CCC=C(c2cc3ccccc3[nH]2)C1 | > 448 µM | > 448 µM | > 448 µM | > 448 µM | > 448 µM |  | > 448 µM | 339 µM | > 448 µM | 298 µM |  |  |  |  |  |  |  |  |  | 
CN(C)c1ccc(O)c2c1C[C@H]1C[C@H]3[C@H](N(C)C)C(=O)C(C(N)=O)=C(O)[C@@]3(O)C(=O)C1=C2O | 20.9 µM | 57.1 µM | > 100 µM | > 100 µM | 15.5 µM | > 100 µM | 35 µM | 39.5 µM | > 100 µM |  | 2.16 µM | 3.88 µM | 7.53 µM | 3.86 µM | 8.99 µM | 4.5 µM | 5.11 µM | 5.46 µM | 4.92 µM | 
COC1=CC(=O)[C@]2(C)[C@H](C1=O)C(C)[C@H]2c1ccccc1 (stereo partly specified) | > 100 µM | > 100 µM | > 100 µM | > 100 µM | > 100 µM | > 100 µM |  | > 100 µM | > 100 µM | > 100 µM |  |  |  |  |  |  |  |  |  | 
CCOc1ccccc1NC(=O)C1=C(C)NC(C)=C(C(=O)Nc2ccccc2OCC)C1c1ccc(NC(C)=O)cc1 | > 100 µM | > 100 µM | > 100 µM | > 100 µM | > 100 µM | > 100 µM |  | > 100 µM | > 100 µM | 23.6 µM |  |  |  |  |  |  |  |  |  | 
COC(=O)c1cc2oc(/C=C3\SC(=S)N(NC(C)=O)C3=O)cc2n1Cc1ccccc1 | 7.79 µM | 4.49 µM | 19.4 µM | 27.6 µM | 14 µM |  | 14.3 µM | 2.66 µM | 16.4 µM | > 50 µM | 2.42 µM | 2.79 µM |  | 7.62 µM | 5.69 µM | 1.37 µM | 2.68 µM | 4.16 µM | 0.53 µM | > 50 µM
O=C1c2c(nc3ccccc3c2-c2ccccc2)CN1Nc1ccccc1 | > 100 µM |  | > 100 µM | > 100 µM |  | > 100 µM | > 100 µM | > 100 µM | > 100 µM | > 100 µM |  |  |  |  |  |  |  |  |  | 
CSC1C(=O)c2ccccc2/C(=N/Nc2nc3ccccc3s2)C1C (stereo unspecified) | 20.1 µM | 15.6 µM | 28.6 µM | 19.1 µM | 21.8 µM |  | 28.8 µM | 17.6 µM | 18.9 µM | 26.3 µM | 8.85 µM | 12.5 µM |  | 4.67 µM | 8.87 µM | 7.66 µM | 10.7 µM | 7.96 µM | 7.98 µM | 6.95 µM
COC(=O)[C@@H](C)C[C@H](Cc1ccccc1)NC(=O)c1csc([C@@H](C[C@H](C(C)C)N(C)C(=O)C2(NC(=O)[C@H]3CCCCN3C)CC2)OC(C)=O)n1 |  | > 33.3 µM | > 33.3 µM | > 33.3 µM |  |  | > 33.3 µM |  |  | 0.00491 µM |  | 0.00868 µM and < 0.00333 µM | 0.00865 µM | 0.00343 µM and 0.00333 µM |  | 0.00913 µM and 0.00333 µM |  |  | 0.000567 µM and 0.00333 µM | 0.000537 µM
N#C[S-].[Au+].c1ccc(CN2[CH-]N(Cc3ccccc3)C(c3ccccc3)=C2c2ccccc2)cc1 |  |  |  | 2.49 µM | 2.13 µM | 2.1 µM |  | 1.3 µM |  |  |  | 0.629 µM | 0.413 µM |  |  |  |  | 0.431 µM | 0.351 µM | 
COc1ccccc1/C=N/N=C(\N)NO | > 100 µM | > 100 µM |  | > 100 µM | 9.4 µM | > 100 µM | > 100 µM | > 100 µM | > 100 µM | 66.9 µM |  |  |  |  |  |  |  |  |  | 
Cc1cccc2c1C/C(=C1\CCc3c(C)cccc31)C2=O | > 100 µM | > 100 µM | > 100 µM | > 100 µM |  | > 100 µM | > 100 µM | > 100 µM | > 100 µM |  |  |  |  |  |  |  |  |  |  | 
Cc1cc(=O)oc2cc(OCc3nc4ccccc4c(=O)[nH]3)ccc12 | > 100 µM | > 100 µM | > 100 µM | > 100 µM | > 100 µM | > 100 µM | > 100 µM | > 100 µM |  | > 100 µM |  |  |  |  |  |  |  |  |  | 
